Assay results reported in patent US20240190883A1, “KRAS PROTEIN DEGRADERS, PHARMACEUTICAL COMPOSITIONS THEREOF, AND THEIR THERAPEUTIC APPLICATIONS” (BioTheryX, Inc., priority 2021, published 2024).
Read-outs that look alike come from different tables or passages of the source.

What was measured:
Format in all cases: cell-based
KRAS protein = biological target: T1, KRAS protein (Homo sapiens, UniProt P01116); experiment: HIBIT degradation assay, HEK293 cells; details: compound at 3 μM, 24 h, HiBiT signal normalized to CTG signal
T1 construct: engineered to express a Hobbit-tagged endogenous KRAS protein; endogenous in cells; host or cells: HEK293, endogenous KRAS locus engineered with a HiBiT tag
T1 sequence (P01116 1-188 isoform P01116-2): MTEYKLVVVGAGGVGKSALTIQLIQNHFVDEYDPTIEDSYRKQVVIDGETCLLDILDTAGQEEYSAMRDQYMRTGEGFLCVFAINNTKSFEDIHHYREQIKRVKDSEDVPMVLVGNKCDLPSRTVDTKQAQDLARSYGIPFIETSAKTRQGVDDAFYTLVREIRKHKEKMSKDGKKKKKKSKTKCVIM
Protocol: HEK293, MIA PaCa-2, AsPc-1, SW620, and H647 cells were engineered to express a […] endogenous KRAS protein. The HEK293 and MIA PaCa-2 cells were cultured in DMEM media supplemented with 10% fetal bovine serum, streptomycin, and penicillin. The AsPc-1, SW620, and H647 were cultured in RPMI media supplemented with 10% fetal bovine serum, streptomycin, and penicillin. The cells were seeded in white walled 96-well plates at 20,000 cells/well in 100 μL culture media in duplicate plates. After incubated at 37° C. under 5% CO2 overnight, the cells were treated with DMSO (control) or a compound, followed by the addition of 100 μL culture media to each well. After the cells were incubated for 24 h at 37° C. under 5% C02, 150 μL media were removed from each well and 50 μL NANOGLO-LGBIT lytic reagent were added to each well, and 50 μL CELLTITER-GLO (CTG) reagent was added to the duplicate plate. Following a 10-minute incubation with shaking, luminescence was measured using a Perkin Elmer ENVISION multimode plate reader. HiBiT signal was normalized to CTG signal. The results are summarized in Table 3, where “A” represents a percentage degradation value of no less than 50%; “B” represents a percentage degradation value of less than 50% and no less than 25%; “C” represents a percentage degradation value of less than 25% and no less than 10%; and “D” represents a percentage degradation value of less than 10%.

Molm-13 cells = experiment: Cell viability assay, inhibition of Molm-13 cells; details: Homo sapiens; for inhibition at 1 µM: compound at 1 μM; for inhibition at 3 µM: compound at 3 μM
Protocol: [Worded in the source for another cell line; this cell line is reported under the same test.] (§1) H358, H23, SW48, and AsPC-1 cells were cultured in RPMI 1640 media supplemented with 10% fetal bovine serum, streptomycin, and penicillin. Lovo and SW480 cells were cultured in DMEM media supplemented with 10% fetal bovine serum, streptomycin, and penicillin. The cell lines were plated in their respective medium supplemented with 2.5% fetal bovine serum, streptomycin, and penicillin. All cell lines were plated in white walled 96-well plates at 2,000 cells/well or 384-well plates at 500 cells/well, except Lovo, which were plated at 4,000 or 1,000 cells/well, respectively. The cells were incubated in DMSO (control) or a compound for 3 days at 37° C. under 5% C02. A CELLTITER-GLO® reagent (100 μL) was then added to each well. After a 10 min incubation with shaking, luminescence was measured using an ENVISION® multimode plate reader. IC50 values are summarized in Table 1 and percentages of inhibition are summarized in Table 2, where compound T1 is 2-(4-(2-methyl-3,5-diphenylpyrazolo[1,5-a]pyrimidin-7-yl)piperazin-1-yl)ethan-1-ol.

SW48 (wt) cells = experiment: Cell viability assay (CELLTITER-GLO), SW48 cells; details: 3 days incubation, 2.5% fetal bovine serum, read-out: Inhibition of Cancerous Cells IC50 (μM) SW48 (wt)
Protocol: as §1

Lovo (G13D) cells = experiment: Cell viability assay (CELLTITER-GLO), Lovo cells; details: 3 days incubation, 2.5% fetal bovine serum, read-out: Inhibition of Cancerous Cells IC50 (μM) Lovo (G13D)
Protocol: as §1

AsPC-1 (G12D) cells = experiment: Cell viability assay (CELLTITER-GLO), AsPC-1 cells; details: 3 days incubation, 2.5% fetal bovine serum, read-out: Inhibition of Cancerous Cells IC50 (μM) AsPC-1 (G12D)
Protocol: as §1

H358 (G12C) cells = experiment: Cell viability assay (CELLTITER-GLO), H358 cells; details: 3 days incubation, 2.5% fetal bovine serum, read-out: Inhibition of Cancerous Cells IC50 (μM) H358 (G12C)
Protocol: as §1

SW480 (G12V) cells = experiment: Cell viability assay (CELLTITER-GLO), SW480 cells; details: 3 days incubation, 2.5% fetal bovine serum, read-out: Inhibition of Cancerous Cells IC50 (μM) SW480 (G12V)
Protocol: as §1

| Compound | IC50 (SW48 (wt) cells; Homo sapiens, 72 h) | IC50 (Lovo (G13D) cells; Homo sapiens, 72 h) | IC50 (AsPC-1 (G12D) cells; Homo sapiens, ASPC1, 72 h) | IC50 (H358 (G12C) cells; Homo sapiens, NCI-H358, 72 h) | IC50 (SW480 (G12V) cells; Homo sapiens, 72 h) | further results |
| --- | --- | --- | --- | --- | --- | --- |
| Cc1nn2c(N3CCN(CCO)CC3)cc(-c3cccc(CCCCCCCN4CCN(C(=O)COc5cccc(N6CCC(=O)NC6=O)c5)CC4)c3)nc2c1-c1ccccc1 [Compound C2, 1-(3-(2-(4-(7-(3-(7-(4-(2-Hydroxyethyl)piperazin-1-yl)-2-methyl-3-phenyl-pyrazolo[1,5-a]pyrimidin-5-yl)phenyl)heptyl)piperazin-1-yl)-2-oxoethoxy)phenyl)dihydro-pyrimidine-2,4(1H,3H)-dione] |  |  |  |  |  | Effect on KRAS Protein Degradation, HEK293, 3 μM (KRAS protein): B (a percentage degradation value of less than 50% and no less than 25%) |
| Cc1nn2c(N3CCN(CCO)CC3)cc(-c3ccccc3)nc2c1-c1cccc(CCCCCN2CCN(C(=O)COc3cccc(N4CCC(=O)NC4=O)c3)CC2)c1 [Compound C10, 1-(3-(2-(4-(5-(3-(7-(4-(2-Hydroxyethyl)piperazin-1-yl)-2-methyl-5-phenyl-pyrazolo[1,5-a]pyrimidin-3-yl)phenyl)pentyl)piperazin-1-yl)-2-oxoethoxy)phenyl)dihydro-pyrimidine-2,4(1H,3H)-dione] |  |  |  |  |  | inhibition at 1 µM (Molm-13 cells): 29%; inhibition at 3 µM (Molm-13 cells): 98% |
| Cc1nn2c(N3CCN(CCO)CC3)cc(-c3cccc(CCCN4CCN(C(=O)CNc5ccc6c(C7CCC(=O)NC7=O)nn(C)c6c5)CC4)c3)nc2c1-c1ccccc1 (stereo not shown) [Compound D1, 3-(6-((2-(4-(3-(3-(7-(4-(2-Hydroxyethyl)piperazin-1-yl)-2-methyl-3-phenyl-pyrazolo[1,5-a]pyrimidin-5-yl)phenyl)propyl)piperazin-1-yl)-2-oxoethyl)amino)-1-methyl-1H-indazol-3-yl)piperidine-2,6-dione] |  |  |  |  |  | inhibition at 1 µM (Molm-13 cells): 24%; inhibition at 3 µM (Molm-13 cells): 98% |
| Cc1nn2c(N3CCN(CCO)CC3)cc(-c3ccccc3)nc2c1-c1cccc(CCCN2CCN(C(=O)CNc3cccc4c(C5CCC(=O)NC5=O)nn(C)c34)CC2)c1 (stereo not shown) [Compound D10, 3-(7-((2-(4-(3-(3-(7-(4-(2-Hydroxyethyl)piperazin-1-yl)-2-methyl-5-phenyl-pyrazolo[1,5-a]pyrimidin-3-yl)phenyl)propyl)piperazin-1-yl)-2-oxoethyl)amino)-1-methyl-1H-indazol-3-yl)piperidine-2,6-dione] | 1.3 µM | 0.87 µM | 1.4 µM | 2.4 µM | 0.63 µM |  |
| Cc1nn2c(N3CCN(CCO)CC3)cc(-c3ccccc3)nc2c1-c1cccc(CCCCCN2CCN(C(=O)CNc3cccc4c(C5CCC(=O)NC5=O)nn(C)c34)CC2)c1 (stereo not shown) [Compound D11, 3-(7-((2-(4-(5-(3-(7-(4-(2-Hydroxyethyl)piperazin-1-yl)-2-methyl-5-phenyl-pyrazolo[1,5-a]pyrimidin-3-yl)phenyl)pentyl)piperazin-1-yl)-2-oxoethyl)amino)-1-methyl-1H-indazol-3-yl)piperidine-2,6-dione] | 0.84 µM | 0.73 µM | 1.4 µM | 1.2 µM | 0.48 µM |  |
| Cc1nn2c(N3CCN(CCO)CC3)cc(-c3ccccc3)nc2c1-c1cccc(CCCCCCCN2CCN(C(=O)CNc3cccc4c(C5CCC(=O)NC5=O)nn(C)c34)CC2)c1 (stereo not shown) [Compound D12, 3-(7-((2-(4-(7-(3-(7-(4-(2-Hydroxyethyl)piperazin-1-yl)-2-methyl-5-phenyl-pyrazolo[1,5-a]pyrimidin-3-yl)phenyl)heptyl)piperazin-1-yl)-2-oxoethyl)amino)-1-methyl-1H-indazol-3-yl)piperidine-2,6-dione] | 0.96 µM | 0.92 µM | 1.4 µM | 1.2 µM | 0.47 µM |  |
| Cc1nn2c(N3CCN(CCO)CC3)cc(-c3ccccc3)nc2c1-c1cccc(CCCCCN2CCN(C(=O)CNc3ccc4c(N5CCC(=O)NC5=O)nn(C)c4c3)CC2)c1 [Compound D14, 1-(6-((2-(4-(5-(3-(7-(4-(2-Hydroxyethyl)piperazin-1-yl)-2-methyl-5-phenyl-pyrazolo[1,5-a]pyrimidin-3-yl)phenyl)pentyl)piperazin-1-yl)-2-oxoethyl)amino)-1-methyl-1H-indazol-3-yl)dihydropyrimidine-2,4(1H,31H)-dione] |  |  |  |  |  | IC50 (SW48 (wt) cells): > 10 µM; IC50 (Lovo (G13D) cells): 0.62 µM; IC50 (AsPC-1 (G12D) cells): > 10 µM; IC50 (H358 (G12C) cells): 2.2 µM; IC50 (SW480 (G12V) cells): 1.1 µM |

The next lines start with results.

| IC50 (SW48 (wt) cells; Homo sapiens, 72 h) | IC50 (Lovo (G13D) cells; Homo sapiens, 72 h) | IC50 (AsPC-1 (G12D) cells; Homo sapiens, ASPC1, 72 h) | IC50 (H358 (G12C) cells; Homo sapiens, NCI-H358, 72 h) | IC50 (SW480 (G12V) cells; Homo sapiens, 72 h) | Compound | further results |
| --- | --- | --- | --- | --- | --- | --- |
| 0.72 µM | 0.51 µM | 1.3 µM | 1 µM | 0.46 µM | Cc1nn2c(N3CCN(CCO)CC3)cc(-c3ccccc3)nc2c1-c1cccc(CCCCCCCN2CCN(C(=O)CNc3ccc4c(C5CCC(=O)NC5=O)nn(C)c4c3)CC2)c1 (stereo not shown) [Compound D9, 3-(6-((2-(4-(7-(3-(7-(4-(2-Hydroxyethyl)piperazin-1-yl)-2-methyl-5-phenyl-pyrazolo[1,5-a]pyrimidin-3-yl)phenyl)heptyl)piperazin-1-yl)-2-oxoethyl)amino)-1-methyl-1H-indazol-3-yl)piperidine-2,6-dione] |  |
| 2 µM | 0.66 µM | 2.3 µM | 1.1 µM | 0.76 µM | Cc1nn2c(N3CCN(CCO)CC3)cc(-c3ccccc3)nc2c1-c1cccc(CCCN2CCN(C(=O)CNc3ccc4c(N5CCC(=O)NC5=O)nn(C)c4c3)CC2)c1 [Compound D13, 1-(6-((2-(4-(3-(3-(7-(4-(2-Hydroxyethyl)piperazin-1-yl)-2-methyl-5-phenyl-pyrazolo[1,5-a]pyrimidin-3-yl)phenyl)propyl)piperazin-1-yl)-2-oxoethyl)amino)-1-methyl-1H-indazol-3-yl)dihydropyrimidine-2,4(1H,3H)-dione] |  |
| 1.1 µM | 0.64 µM | 1.4 µM | 1.3 µM | 0.56 µM | Cc1nn2c(N3CCN(CCO)CC3)cc(-c3ccccc3)nc2c1-c1cccc(CCCCCCCN2CCN(C(=O)CNc3ccc4c(N5CCC(=O)NC5=O)nn(C)c4c3)CC2)c1 [Compound D15, 1-(6-((2-(4-(7-(3-(7-(4-(2-Hydroxyethyl)piperazin-1-yl)-2-methyl-5-phenyl-pyrazolo[1,5-a]pyrimidin-3-yl)phenyl)heptyl)piperazin-1-yl)-2-oxoethyl)amino)-1-methyl-1H-indazol-3-yl)dihydropyrimidine-2,4(1H,3H)-dione] |  |
